Source: patent publication US11401246B2, “Triazole glycolate oxidase inhibitors” (CANTERO THERAPEUTICS, INC., priority 2018, dated 2022)

target: T1, human glycolate oxidase (hGO) (Homo sapiens, UniProt Q9UJM8); assay: In vitro inhibition of human glycolate oxidase (enzymatic assay, HRP-coupled Trinder reaction); type: biochemical; details: not given;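 on % Inhibition: values are IC50 potency bins despite the % Inhibition label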
T1 construct: His-tag (6 histidines, pET-15b) (N); made in house; host or cells: E. coli BL21 (DE3)
T1 sequence (Q9UJM8 1-370): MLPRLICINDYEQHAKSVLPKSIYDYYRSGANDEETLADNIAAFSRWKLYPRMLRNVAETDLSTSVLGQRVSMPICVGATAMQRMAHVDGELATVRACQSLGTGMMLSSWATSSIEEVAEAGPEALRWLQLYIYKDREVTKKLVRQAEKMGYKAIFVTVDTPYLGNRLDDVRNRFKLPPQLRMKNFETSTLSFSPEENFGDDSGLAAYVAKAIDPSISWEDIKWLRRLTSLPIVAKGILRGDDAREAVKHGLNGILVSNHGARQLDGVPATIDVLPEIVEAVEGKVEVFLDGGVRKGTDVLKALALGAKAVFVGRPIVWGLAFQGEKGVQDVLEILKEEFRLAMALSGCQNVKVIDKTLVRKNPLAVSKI
Description: The catalytic reactions used for assaying glycolate oxidase activity in the presence of compounds according to the present disclosure are outlined in FIG. 2. Glycolate oxidase (GO)-catalyzed conversion of glycolate to glyoxylate (top reaction), with the concomitant reduction of the cofactor flavin mononucleotide (FMN), uses molecular oxygen (O2) for recovering its oxidative state, releasing hydrogen peroxide (H2O2). The Trinder reaction (bottom reaction), in which horseradish peroxidase (HRP) uses hydrogen peroxide, 4-aminoantipyrine and a phenol derivative (sulphonated DCIP) to generate a quinoneimine dye that is spectrophotometrically measured.
Human glycolate oxidase (hGO) expression. BL21 (DE3) E. coli transformed with recombinant pET-15b expression vector with the N-terminal His-tag human Hao1 cDNA was grown in LB medium in the presence of 0.1 mg/ml ampicillin. For purification of recombinant human glycolate oxidase (hGO) expressed in BL21 E. coli, bacteria pellets were thawed and re-suspended in 2 ml lysis buffer (50 mM NaH2PO4, 300 mM NaCl, 10 mM imidazole, 50 μM FMN, pH 7.5), and then treated for 30 minutes with 1 mM PMSF for protease inhibition, 0.1% Triton X-100 and 0.2 mg/ml lysozyme to break cellular membranes. After sonication, cells were centrifuged and the supernatant containing the total cellular extract (pre-column fraction) was loaded into a Ni-NTA agarose column and incubated for 30 minutes at 4° C. to allow binding of the 6 histidine tail of recombinant GO protein to the nickel ions. The column was washed with two bed volumes of lysis buffer with 20 mM imidazole to eliminate unbound proteins (wash fraction). GO was eluted using the same buffer with 300 mM imidazole. Fraction containing purified GO was dialyzed against 300 ml of dialysis buffer (50 mM NaH2PO4, 300 mM NaCl, pH 7.5) at 4° C. in agitation overnight, and then kept at 4° C. in darkness. Protein were quantified by the bicinchoninic acid (BCA) assay.
Enzymatic assays. Enzymatic activity of hGO was determined in the presence of glycolate as substrate (40 mM glycolic acid) and phosphate buffer (50 mM KPO4, 0.1 mM EDTA, pH 7). The production of glyoxylate was indirectly measured by the quantification of hydrogen peroxide formed during the first oxidation reaction. […] Enzymatic activity was calculated at 1 minute after initiation of the Trinder reaction.

Row | IC50 [nM] | SMILES
1 | 100 to 200 | N#Cc1cccc(-c2ccc(Oc3[nH]nnc3C(=O)O)cc2)c1 [Example 20, 5-((3′-cyano-[1,1′-biphenyl]-4-yl)oxy)-1H-1,2,3-triazole-4-carboxylic Acid]
2 | < 100 | O=C(O)c1nn[nH]c1Oc1ccc(-c2ccc(Br)cc2)cc1 [Example 10, 5-((4′-bromo-[1,1′-biphenyl]-4-yl)oxy)-1H-1,2,3-triazole-4-carboxylic Acid]
3 | 100 to 200 | O=C(O)c1nn[nH]c1Oc1ccc(Cl)c(F)c1 [Example 8, 5-(4-chloro-3-fluorophenoxy)-1H-1,2,3-triazole-4-carboxylic Acid]

same assay, conditions: recombinant hGO, 40 mM glycolic acid, pH 7, read at 515 nm, 1 minute after initiation of Trinder reaction; read-out: % Inhibition

Row | IC50 [nM] | SMILES
4 | 100 to 200 | N#Cc1ccc(-c2cccc(Oc3[nH]nnc3C(=O)O)c2)cc1 [Example 64, 5-((4′-cyano-[1,1′-biphenyl]-3-yl)oxy)-1H-1,2,3-triazole-4-carboxylic Acid]
5 | < 100 | O=C(O)c1nn[nH]c1Oc1ccc(-c2cnccn2)cc1 [Example 37, 5-(4-(pyrazin-2-yl)phenoxy)-1H-1,2,3-triazole-4-carboxylic Acid]
6 | 100 to 200 | N#Cc1ccc(-c2ccc(Oc3nn[nH]c3C(=O)O)cc2)cc1 [Example 29, 5-((4′-cyano-[1,1′-biphenyl]-4-yl)oxy)-1H-1,2,3-triazole-4-carboxylic Acid]
7 | < 100 | COc1ccc(-c2ccc(Oc3[nH]nnc3C(=O)O)cc2OC)cn1 [Example 90, 5-(3-methoxy-4-(6-methoxypyridin-3-yl)phenoxy)-1H-1,2,3-triazole-4-carboxylic Acid]
8 | 100 to 200 | O=C(O)c1nn[nH]c1Oc1ccc(-c2ccoc2)cc1 [Example 41, 5-(4-(furan-3-yl)phenoxy)-1H-1,2,3-triazole-4-carboxylic Acid]
9 | 100 to 200 | O=C(O)c1nn[nH]c1Oc1ccc(-c2cccnc2)cc1 [Example 14, 5-(4-(pyridin-3-yl)phenoxy)-1H-1,2,3-triazole-4-carboxylic Acid]
10 | < 100 | O=C(O)c1nn[nH]c1Oc1ccc(-c2ccc(C3CC3)cc2)cc1 [Example 121, 5-((4′-cyclopropyl-[1,1′-biphenyl]-4-yl)oxy)-1H-1,2,3-triazole-4-carboxylic Acid]
11 | < 100 | Cc1cc(F)nc(-c2ccc(Oc3[nH]nnc3C(=O)O)cc2)c1 [Example 74, 5-(4-(6-fluoro-4-methylpyridin-2-yl)phenoxy)-1H-1,2,3-triazole-4-carboxylic Acid]
12 | < 100 | O=C(O)c1nn[nH]c1Oc1ccc(Br)cc1 [Example 6, 5-(4-bromophenoxy)-1H-1,2,3-triazole-4-carboxylic Acid]
13 | < 100 | O=C(O)c1nn[nH]c1Oc1ccc(-c2cccnc2F)cc1 [Example 18, 5-(4-(2-fluoropyridin-3-yl)phenoxy)-1H-1,2,3-triazole-4-carboxylic Acid]
14 | < 100 | COc1ccc(-c2ccc(Oc3[nH]nnc3C(=O)O)cc2OC)c(OC)n1 [Example 91, 5-(4-(2,6-dimethoxypyridin-3-yl)-3-methoxyphenoxy)-1H-1,2,3-triazole-4-carboxylic Acid]
15 | 100 to 200 | Cc1cc(Oc2[nH]nnc2C(=O)O)ccc1-c1cnc(F)c(C)c1 [Example 86, 5-(4-(6-fluoro-5-methylpyridin-3-yl)-3-methylphenoxy)-1H-1,2,3-triazole-4-carboxylic Acid]
16 | 100 to 200 | O=C(O)c1nn[nH]c1Oc1ccc(-c2cc(F)c(F)c(F)c2)cc1 [Example 110, 5-((3′,4′,5′-trifluoro-[1,1′-biphenyl]-4-yl)oxy)-1H-1,2,3-triazole-4-carboxylic Acid]
17 | < 100 | Cc1cncc(-c2ccc(Oc3[nH]nnc3C(=O)O)cc2)c1 [Example 80, 5-(4-(5-methylpyridin-3-yl)phenoxy)-1H-1,2,3-triazole-4-carboxylic Acid]
18 | 100 to 200 | O=C(O)c1nn[nH]c1Oc1cccc(Br)c1 [Example 7, 5-(3-bromophenoxy)-1H-1,2,3-triazole-4-carboxylic Acid]
19 | 100 to 200 | Cc1ccc(-c2ccc(Oc3[nH]nnc3C(=O)O)cc2)cn1 [Example 84, 5-(4-(6-methylpyridin-3-yl)phenoxy)-1H-1,2,3-triazole-4-carboxylic Acid]
20 | < 100 | CN(C)c1cccc(Oc2[nH]nnc2C(=O)O)c1 [Example 58, 5-(3-(dimethylamino)phenoxy)-1H-1,2,3-triazole-4-carboxylic Acid]
21 | 100 to 200 | O=C(O)c1nn[nH]c1Oc1ccc(-c2cn[nH]c2)cc1 [Example 11, 5-(4-(1H-pyrazol-4-yl)phenoxy)-1H-1,2,3-triazole-4-carboxylic Acid]

Row | IC50 [nM] | SMILES
22 | 100 to 200 | CC(C)c1ccc(-c2ccc(Sc3[nH]nnc3C(=O)O)cc2)cc1 [Example 113, 5-((4′-isopropyl-[1,1′-biphenyl]-4-yl)thio)-1H-1,2,3-triazole-4-carboxylic Acid]
23 | > 200 | COc1ccc(Oc2[nH]nnc2C(=O)O)cn1 [Example 70, 5-((6-methoxypyridin-3-yl)oxy)-1H-1,2,3-triazole-4-carboxylic Acid]
24 | > 200 | CN1CCN(c2ccc(Oc3[nH]nnc3C(=O)O)cc2)CC1 [Example 65, 5-(4-(4-methylpiperazin-1-yl)phenoxy)-1H-1,2,3-triazole-4-carboxylic Acid]
25 | < 100 | O=C(O)c1nn[nH]c1Oc1ccc(-c2cccc3ccccc23)cc1 [Example 94, 5-(4-(1-naphthyl)phenoxy)-1H-1,2,3-triazole-4-carboxylic Acid]
26 | 100 to 200 | NC(=O)c1ccc(-c2cccc(Oc3[nH]nnc3C(=O)O)c2)cc1 [Example 63, 5-((4′-carbamoyl-[1,1′-biphenyl]-3-yl)oxy)-1H-1,2,3-triazole-4-carboxylic Acid]
27 | 100 to 200 | O=C(O)c1nn[nH]c1Oc1ccc(-c2ccc(C(F)(F)F)cc2)cc1F [Example 104, 5-((3-fluoro-4′-(trifluoromethyl)-[1,1′-biphenyl]-4-yl)oxy)-1H-1,2,3-triazole-4-carboxylic Acid]
28 | < 100 | Cc1nc(F)ccc1-c1ccc(Oc2[nH]nnc2C(=O)O)cc1 [Example 73, 5-(4-(6-fluoro-2-methylpyridin-3-yl)phenoxy)-1H-1,2,3-triazole-4-carboxylic Acid]
29 | < 100 | O=C(O)c1nn[nH]c1Oc1ccc(-c2ccncc2)cc1 [Example 19, 5-(4-(pyridin-4-yl)phenoxy)-1H-1,2,3-triazole-4-carboxylic Acid]
30 | 100 to 200 | Cc1ccc(Oc2[nH]nnc2C(=O)O)cc1 [Example 43, 5-(p-tolyloxy)-1H-1,2,3-triazole-4-carboxylic Acid]
31 | > 200 | Cc1ccc(Oc2[nH]nnc2C(=O)O)cn1 [Example 54, 5-((6-methylpyridin-3-yl)oxy)-1H-1,2,3-triazole-4-carboxylic Acid]
32 | > 200 | Cc1ccc(Oc2[nH]nnc2C(=O)O)c(C)n1 [Example 67, 5-((2,6-dimethylpyridin-3-yl)oxy)-1H-1,2,3-triazole-4-carboxylic Acid]
33 | < 100 | N#Cc1ccc(Oc2[nH]nnc2C(=O)O)cc1 [Example 53, 5-(4-cyanophenoxy)-1H-1,2,3-triazole-4-carboxylic Acid]
34 | < 100 | O=C(O)c1nn[nH]c1Oc1ccc(Cl)nc1 [Example 49, 5-((6-chloropyridin-3-yl)oxy)-1H-1,2,3-triazole-4-carboxylic Acid]
35 | < 100 | O=C(O)c1nn[nH]c1Oc1ccc(-c2ccsc2)cc1 [Example 23, 5-(4-(thiophen-3-yl)phenoxy)-1H-1,2,3-triazole-4-carboxylic Acid]
36 | < 100 | O=C(O)c1nn[nH]c1Oc1ccc(C23CC(C2)C3)cc1 [Example 76, 5-(4-(3-bicyclo[1.1.1]pentan-1-yl)phenoxy)-1H-1,2,3-triazole-4-carboxylic Acid]
37 | < 100 | COc1ccc(-c2ccc(Oc3[nH]nnc3C(=O)O)cc2)c(OC)n1 [Example 101, 5-(4-(2,6-dimethoxypyridin-3-yl)phenoxy)-1H-1,2,3-triazole-4-carboxylic Acid]
38 | < 100 | N#Cc1ccc(-c2ccc(Oc3[nH]nnc3C(=O)O)cn2)cc1 [Example 55, 5-((6-(4-cyanophenyl)pyridin-3-yl)oxy)-1H-1,2,3-triazole-4-carboxylic Acid]
